For data set [1], the target named is Phosphatidylinositol 4,5-bisphosphate 3-kinase catalytic subunit gamma isoform (Homo sapiens, UniProt P48736). The data set can be described thus: Inhibition of PI3Kgamma (unknown origin).
Data set [2] concerns the target Phosphatidylinositol 4,5-bisphosphate 3-kinase catalytic subunit alpha isoform (Homo sapiens, UniProt P42336). The data set can be described thus: Inhibition of PI3Kalpha (unknown origin).
Data set [3] deals with T1, Phosphatidylinositol 4,5-bisphosphate 3-kinase catalytic subunit beta isoform (Homo sapiens, UniProt P42338). Briefly: Inhibition of PI3Kbeta (unknown origin).
T1 sequence (P42338 whole entry, canonical isoform): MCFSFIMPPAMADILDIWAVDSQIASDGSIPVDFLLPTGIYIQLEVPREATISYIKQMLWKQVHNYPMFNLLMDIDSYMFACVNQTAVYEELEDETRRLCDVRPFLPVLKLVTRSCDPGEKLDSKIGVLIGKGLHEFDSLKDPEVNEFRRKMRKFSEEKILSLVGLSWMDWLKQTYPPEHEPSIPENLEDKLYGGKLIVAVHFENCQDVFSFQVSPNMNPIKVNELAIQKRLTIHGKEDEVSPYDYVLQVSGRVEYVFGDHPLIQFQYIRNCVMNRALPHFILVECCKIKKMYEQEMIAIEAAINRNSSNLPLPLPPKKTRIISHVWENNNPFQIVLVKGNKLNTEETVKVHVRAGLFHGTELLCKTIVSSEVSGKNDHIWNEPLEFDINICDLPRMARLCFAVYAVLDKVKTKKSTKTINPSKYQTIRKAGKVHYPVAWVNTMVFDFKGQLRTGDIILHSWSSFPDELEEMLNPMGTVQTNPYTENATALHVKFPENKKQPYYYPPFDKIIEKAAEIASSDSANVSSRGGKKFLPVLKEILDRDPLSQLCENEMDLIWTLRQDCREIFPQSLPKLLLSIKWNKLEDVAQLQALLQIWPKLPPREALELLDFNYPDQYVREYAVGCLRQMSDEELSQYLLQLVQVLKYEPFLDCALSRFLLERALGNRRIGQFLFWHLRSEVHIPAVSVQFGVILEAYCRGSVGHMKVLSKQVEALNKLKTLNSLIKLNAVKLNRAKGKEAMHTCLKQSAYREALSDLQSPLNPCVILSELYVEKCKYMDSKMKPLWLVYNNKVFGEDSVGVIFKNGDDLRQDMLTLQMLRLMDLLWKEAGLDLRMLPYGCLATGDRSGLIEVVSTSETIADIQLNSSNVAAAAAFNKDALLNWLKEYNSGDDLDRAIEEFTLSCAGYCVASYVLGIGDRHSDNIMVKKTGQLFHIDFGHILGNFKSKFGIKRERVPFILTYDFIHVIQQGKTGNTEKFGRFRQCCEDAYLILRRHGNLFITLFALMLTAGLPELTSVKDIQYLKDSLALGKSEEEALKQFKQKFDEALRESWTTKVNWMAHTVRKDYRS
For data set [4], the target named is T2, Phosphatidylinositol 4,5-bisphosphate 3-kinase catalytic subunit delta isoform (Homo sapiens, UniProt O00329).
T2 sequence (O00329 whole entry): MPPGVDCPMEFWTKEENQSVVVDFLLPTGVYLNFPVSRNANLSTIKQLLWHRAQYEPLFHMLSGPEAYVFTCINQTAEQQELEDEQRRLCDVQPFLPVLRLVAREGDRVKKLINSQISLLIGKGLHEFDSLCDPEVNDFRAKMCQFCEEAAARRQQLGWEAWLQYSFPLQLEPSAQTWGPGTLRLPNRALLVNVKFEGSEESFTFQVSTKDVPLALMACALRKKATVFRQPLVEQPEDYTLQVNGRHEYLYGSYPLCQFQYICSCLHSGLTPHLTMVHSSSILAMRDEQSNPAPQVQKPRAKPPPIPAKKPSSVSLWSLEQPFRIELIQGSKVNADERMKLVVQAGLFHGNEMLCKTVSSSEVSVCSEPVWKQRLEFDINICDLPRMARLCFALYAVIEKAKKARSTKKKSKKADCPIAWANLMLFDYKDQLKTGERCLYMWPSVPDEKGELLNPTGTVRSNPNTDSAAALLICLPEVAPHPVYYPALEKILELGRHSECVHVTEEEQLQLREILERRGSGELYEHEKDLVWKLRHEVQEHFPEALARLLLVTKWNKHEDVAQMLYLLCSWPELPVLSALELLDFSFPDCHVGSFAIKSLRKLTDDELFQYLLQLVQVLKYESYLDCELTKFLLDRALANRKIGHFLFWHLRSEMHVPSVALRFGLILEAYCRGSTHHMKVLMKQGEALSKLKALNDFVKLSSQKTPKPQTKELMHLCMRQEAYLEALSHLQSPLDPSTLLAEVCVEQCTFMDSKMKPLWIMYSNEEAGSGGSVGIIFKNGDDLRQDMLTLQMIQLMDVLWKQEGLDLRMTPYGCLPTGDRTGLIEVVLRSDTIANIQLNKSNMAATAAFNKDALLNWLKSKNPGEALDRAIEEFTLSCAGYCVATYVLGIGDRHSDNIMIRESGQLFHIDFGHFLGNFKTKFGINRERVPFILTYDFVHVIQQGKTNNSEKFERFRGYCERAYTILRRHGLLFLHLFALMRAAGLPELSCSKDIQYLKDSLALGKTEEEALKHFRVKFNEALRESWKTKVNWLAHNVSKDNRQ
The data set can be described thus: Inhibition of PI3Kdelta (unknown origin).

Data set [5] deals with T1, Phosphatidylinositol 4,5-bisphosphate 3-kinase catalytic subunit beta isoform. The data set can be described thus: Inhibition of PI3Kbeta human in PTEN-null MDA-MB-468 cells assessed as reduction of AKT phosphorylation at Ser 473 in absence of serum. The format is cell-based.
Data set [6] has the same target. The data set can be described thus: Inhibition of PI3Kbeta human in PTEN-null MDA-MB-468 cells assessed as reduction of AKT phosphorylation at Ser 473 in presence of serum. The format is cell-based.
Data set [7] in a line: Plasma protein binding in rat serum by equilibrium dialysis. The format is ADME, cell-free. Conditions: read-out: PPB (converted).
Data set [8] can be described thus: Plasma protein binding in mouse serum by equilibrium dialysis. The format is ADME, cell-free. Conditions: read-out: PPB (converted).
Data set [9] can be described thus: Plasma protein binding in human serum by equilibrium dialysis. Conditions: read-out: PPB (converted). In kind it is ADME, cell-free. For orientation: Equilibrium dialysis compares concentrations on both sides of a semipermeable membrane.
Data set [10] concerns the target T1, Phosphatidylinositol 4,5-bisphosphate 3-kinase catalytic subunit beta isoform. The data set can be described thus: Inhibition of PI3Kbeta human in PTEN wild type HCC1954 cells assessed as reduction of AKT phosphorylation at Ser 473. The format is cell-based.

Sequence of Phosphatidylinositol 4,5-bisphosphate 3-kinase catalytic subunit alpha isoform (P42336 whole entry, canonical isoform): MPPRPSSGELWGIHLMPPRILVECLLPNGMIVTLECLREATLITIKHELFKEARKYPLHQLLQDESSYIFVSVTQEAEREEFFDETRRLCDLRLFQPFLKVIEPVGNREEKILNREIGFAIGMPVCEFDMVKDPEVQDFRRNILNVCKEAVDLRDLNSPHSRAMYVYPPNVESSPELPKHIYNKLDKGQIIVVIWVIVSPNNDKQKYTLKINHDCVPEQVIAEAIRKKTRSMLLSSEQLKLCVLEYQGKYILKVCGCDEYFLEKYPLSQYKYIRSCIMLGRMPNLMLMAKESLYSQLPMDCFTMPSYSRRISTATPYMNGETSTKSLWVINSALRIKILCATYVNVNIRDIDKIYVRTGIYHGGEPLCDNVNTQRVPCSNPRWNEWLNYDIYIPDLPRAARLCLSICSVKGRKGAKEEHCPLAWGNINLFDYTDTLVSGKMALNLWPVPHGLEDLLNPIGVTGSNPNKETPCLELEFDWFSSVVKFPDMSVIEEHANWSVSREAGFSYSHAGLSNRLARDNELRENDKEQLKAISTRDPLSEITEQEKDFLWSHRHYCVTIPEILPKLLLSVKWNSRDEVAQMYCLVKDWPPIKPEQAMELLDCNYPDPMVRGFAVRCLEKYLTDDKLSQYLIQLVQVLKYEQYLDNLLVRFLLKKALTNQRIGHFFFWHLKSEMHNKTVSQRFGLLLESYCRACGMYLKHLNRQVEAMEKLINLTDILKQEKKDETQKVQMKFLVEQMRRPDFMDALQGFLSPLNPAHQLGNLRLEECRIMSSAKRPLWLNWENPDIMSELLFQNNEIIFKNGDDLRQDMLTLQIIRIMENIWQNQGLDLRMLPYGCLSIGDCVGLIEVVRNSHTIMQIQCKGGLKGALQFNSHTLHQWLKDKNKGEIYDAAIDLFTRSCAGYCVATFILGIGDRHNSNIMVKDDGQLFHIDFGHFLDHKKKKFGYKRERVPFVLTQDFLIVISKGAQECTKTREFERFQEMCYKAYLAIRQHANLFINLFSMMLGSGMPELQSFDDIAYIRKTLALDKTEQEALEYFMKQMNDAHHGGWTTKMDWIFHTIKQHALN
Sequence of Phosphatidylinositol 4,5-bisphosphate 3-kinase catalytic subunit gamma isoform (P48736 whole entry, canonical isoform): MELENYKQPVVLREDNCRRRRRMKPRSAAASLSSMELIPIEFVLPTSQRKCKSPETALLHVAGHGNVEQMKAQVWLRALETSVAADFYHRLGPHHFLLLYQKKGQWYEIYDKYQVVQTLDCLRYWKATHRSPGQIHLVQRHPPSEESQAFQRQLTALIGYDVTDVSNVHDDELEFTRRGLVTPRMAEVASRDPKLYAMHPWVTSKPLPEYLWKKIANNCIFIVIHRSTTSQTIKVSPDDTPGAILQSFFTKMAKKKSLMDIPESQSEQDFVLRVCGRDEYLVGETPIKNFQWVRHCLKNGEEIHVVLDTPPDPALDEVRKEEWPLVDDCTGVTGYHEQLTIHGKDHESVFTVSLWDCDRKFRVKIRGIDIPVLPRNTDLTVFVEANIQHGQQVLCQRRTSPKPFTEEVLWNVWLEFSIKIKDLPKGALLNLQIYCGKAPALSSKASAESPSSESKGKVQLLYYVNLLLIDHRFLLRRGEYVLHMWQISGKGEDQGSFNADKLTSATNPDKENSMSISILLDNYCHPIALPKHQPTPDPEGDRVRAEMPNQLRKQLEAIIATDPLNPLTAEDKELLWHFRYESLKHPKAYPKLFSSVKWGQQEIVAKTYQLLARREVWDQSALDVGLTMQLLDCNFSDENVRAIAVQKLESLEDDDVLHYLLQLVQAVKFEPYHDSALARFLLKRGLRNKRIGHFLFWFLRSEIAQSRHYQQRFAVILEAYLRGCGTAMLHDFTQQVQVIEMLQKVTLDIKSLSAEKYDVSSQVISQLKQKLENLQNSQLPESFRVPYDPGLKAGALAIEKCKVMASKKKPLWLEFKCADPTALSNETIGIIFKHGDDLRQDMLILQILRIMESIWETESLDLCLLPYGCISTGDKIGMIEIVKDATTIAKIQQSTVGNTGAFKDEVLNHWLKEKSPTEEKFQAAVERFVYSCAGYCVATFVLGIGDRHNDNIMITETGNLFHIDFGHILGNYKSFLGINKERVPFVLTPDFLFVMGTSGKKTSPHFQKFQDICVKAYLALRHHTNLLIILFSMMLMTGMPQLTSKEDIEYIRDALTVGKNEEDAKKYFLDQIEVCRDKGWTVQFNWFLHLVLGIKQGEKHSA

For the compound `Cc1nn2c(O)cc(N3CCOC(C)C3)nc2c1Cc1cccc(C(F)(F)F)c1C` (configuration not stated), the half-maximal inhibitory concentration (IC50) was 398 nM in data set [1], 200 nM in data set [2], 2.51 nM in data set [3] and 15.8 nM in data set [4].
For `Cc1nn2c(NCCO)cc(C3CCOCC3)nc2c1Cc1cccc(C(F)(F)F)c1C` the same measures were 5010 nM, over 1580 nM, 1260 nM and over 631 nM.
For `Oc1cc(-c2ccncc2)nc2c(Cc3cccc(Cl)c3Cl)c(C(F)(F)F)nn12` the same measures were 398 nM, 631 nM, 2.51 nM and 79.4 nM.
As to `Cc1c(Cn2c(C)nc(=O)c3sc(N4CCOCC4)nc32)cccc1C(F)(F)F`, the EC50 was 6.31 nM in data set [5] and 15.8 nM in [6]. The results for the fraction unbound in data set [7], in data set [8] and in [9] were 0.254, 0.118 and 0.137, respectively. The compound further had an IC50 in data set [3] of 0.631 nM.
For the compound `Oc1cc(N2CCOCC2)nc2c(Cc3cccc(Cl)c3Cl)c(C(F)(F)F)nn12`, the results for the EC50 in data set [6] and in [10] were 5010 nM and over 31600 nM, respectively. The IC50 in [1] was 251 nM; in data set [2], 200 nM; in [3] it was 0.398 nM; in data set [4] it was 6.31 nM.
As for `Cc1nn2c(C#N)cc(N3CCOCC3)nc2c1Cc1cccc(C(F)(F)F)c1C`, the half-maximal inhibitory concentration (IC50) in [1] was over 3160 nM; in [2], over 1000 nM; in data set [3], over 1260 nM; in data set [4], over 251 nM.
For `Cc1nn2c(O)cc(N3CCOCC3=O)nc2c1Cc1cccc(C(F)(F)F)c1C`, in that order: 3160 nM, 251 nM, 316 nM and 158 nM.
For `CCc1nn2c(O)cc(C3CCOCC3)nc2c1Cc1cccc(Cl)c1Cl`, in that order: over 7940 nM, over 1580 nM, 12.6 nM and over 398 nM.
For `Cc1nn2ccc(C3CCOCC3)nc2c1Cc1cccc(C(F)(F)F)c1C`, in that order: 2000 nM, over 1580 nM, 794 nM and over 501 nM.
Turning to `CCc1nn2c(O)cc(-c3ccncc3)nc2c1Cc1cccc(Cl)c1Cl`, the EC50 in data set [6] was 20000 nM; in data set [10], over 31600 nM. The IC50 is 398 nM in data set [1], 158 nM in [2], 0.631 nM in data set [3] and 20 nM in data set [4].
As for `Oc1cc(C2CCOCC2)nc2c(Cc3cccc(Cl)c3Cl)c(C(F)(F)F)nn12`, the IC50 in [1] was over 6310 nM; in data set [2], 2510 nM; in data set [3], 6.31 nM; in [4], 100 nM.
Take `Cc1c(Cc2cnn3c(O)cc(N4CCOCC4)nc23)cccc1C(F)(F)F`: the EC50 is 63.1 nM in data set [5], 1000 nM in [6] and over 31600 nM in data set [10]. The 50% inhibitory concentration (IC50) in data set [1] is 501 nM; in data set [2], 316 nM; in data set [3], 5.01 nM; in data set [4] it was 20 nM.
As for `Cc1nn2c(N)cc(N3CCOCC3)nc2c1Cc1cccc(C(F)(F)F)c1C`, the EC50 was 1000 nM in data set [6] and over 31600 nM in data set [10]. For the same compound, the IC50 is over 1480 nM in data set [1], over 2000 nM in data set [2], 39.8 nM in data set [3] and 158 nM in data set [4].
Turning to `CNc1cc(N2CCOCC2)nc2c(Cc3cccc(C(F)(F)F)c3C)c(C)nn12`, the IC50 in data set [1] was over 6310 nM; in [2], over 1580 nM; in data set [3], over 3160 nM; in data set [4] it was over 631 nM.
For `Cc1nn2c(O)cc(N3CCOCC3)nc2c1Cc1cccc2ccccc12`, the EC50 in data set [6] was 1000 nM; in [10] it was over 31600 nM. Further, the IC50 was 631 nM in data set [1], 316 nM in [2], 1 nM in data set [3] and 25.1 nM in [4].
Take `Cc1c(Cc2cnn3c(O)cc(-c4ccncc4)nc23)cccc1C(F)(F)F`: the concentration giving a half-maximal response (EC50) in [5] was 25.1 nM; in data set [6] it was 3160 nM; in [10], over 31600 nM. Moreover, the IC50 in [1] is 316 nM; in data set [2], 501 nM; in data set [3] it was 2.51 nM; in data set [4], 100 nM.
As for `Cc1nn2c(O)cc(C3CCOCC3)nc2c1Cc1cccc(C(F)(F)F)c1C`, the EC50 in data set [6] was 10000 nM; in data set [10], over 31600 nM. In addition, the half-inhibitory concentration (IC50) in [1] was 2510 nM; in data set [2], over 1580 nM; in data set [3], 3.98 nM; in data set [4], 126 nM.
`CC(=O)Nc1cc(N2CCOCC2)nc2c(Cc3cccc(C(F)(F)F)c3C)c(C)nn12`: the IC50 in data set [1] is over 5010 nM; in data set [2], over 2000 nM; in data set [3], over 1260 nM; in data set [4], over 631 nM.
In the case of `Cc1nn2c(NC(N)=O)cc(N3CCOCC3)nc2c1Cc1cccc(C(F)(F)F)c1C`, the concentration for a half-maximal effect (EC50) in [6] and in [10] was over 31600 nM in each case. The IC50 in data set [1] was over 6310 nM; in [2], over 6310 nM; in data set [3], 20 nM; in data set [4], over 631 nM.
For the compound `Cc1nn2c(NO)cc(C3CCOCC3)nc2c1Cc1cccc(C(F)(F)F)c1C`, the concentration for half-maximal inhibition (IC50) in data set [1] was over 6310 nM; in [2] it was over 1580 nM; in data set [3] it was 39.8 nM; in [4] it was 251 nM.
For `Cc1c(Cc2cnn3c(Cl)cc(N4CCOCC4)nc23)cccc1C(F)(F)F`, in that order: over 5010 nM, over 5010 nM, 316 nM and over 631 nM.
For `COc1cc(N2CCOCC2)nc2c(Cc3cccc(C(F)(F)F)c3C)cnn12`, in that order: over 5010 nM, over 5010 nM, 1000 nM and over 631 nM.
With `Nc1nn2c(O)cc(C3CCOCC3)nc2c1Cc1cccc(Cl)c1Cl`, the EC50 in [6] was 2000 nM; in data set [10], over 31600 nM. Further, the IC50 in data set [1] was over 3980 nM; in [2], 1580 nM; in data set [3], 7.94 nM; in [4] it was 631 nM.
Regarding `COc1nn2c(O)cc(-c3ccncc3)nc2c1Cc1cccc(Cl)c1Cl`, the EC50 in [5] is 158 nM; in data set [6], 12600 nM; in data set [10], over 31600 nM. The IC50 was 501 nM in data set [1], 158 nM in [2], 1.26 nM in data set [3] and 25.1 nM in data set [4].
As for `Cc1nn2c(C(N)=O)cc(N3CCOCC3)nc2c1Cc1cccc(C(F)(F)F)c1C`, the EC50 in [6] and in data set [10] was over 31600 nM throughout. Also, the IC50 is over 6310 nM in data set [1], over 6310 nM in [2], 25.1 nM in data set [3] and over 631 nM in data set [4].
As for `Cc1nn2c(C(=O)O)cc(N3CCOCC3)nc2c1Cc1cccc(C(F)(F)F)c1C`, the EC50 was 1000 nM in data set [6] and over 31600 nM in data set [10]. The IC50 in data set [1] is over 6310 nM; in data set [2], 1580 nM; in [3], 5.01 nM; in data set [4] it was 39.8 nM.
In the case of `Cc1c(Cc2c(=O)[nH]n3c(=O)cc(C4CCOCC4)[nH]c23)cccc1C(F)(F)F`, the IC50 in data set [1] was over 5010 nM; in data set [2], over 2000 nM; in [3] it was 63.1 nM; in data set [4], over 631 nM.

The term IC50 denotes the concentration that inhibits the measured activity by half. Lower therefore signals greater potency. Usually EC50 stands for the concentration at which the effect is half-maximal.

The values are drawn from ChEMBL document CHEMBL2321733, “[3a,4]-Dihydropyrazolo[1,5a]pyrimidines: Novel, Potent, and Selective Phosphatidylinositol-3-kinase β Inhibitors” (ACS Med Chem Lett, 2013).
